From patent EP0617893B1, “Molluscicides” (SHELL INTE[…] […] B.V., priority 1993, dated 1994)
Like-named read-outs stand apart in the source and are kept apart here.

Tests used:
[1] = test system: Deroceras reticulatum; assay: Oral toxicity bait test (pellets in petri-dish), percentage control; type: in vivo; conditions: 72 h; for mortality at 2 % strength: 2 % active material in bait; for mortality at 4 % strength: read-out: % control
Description: The molluscicidal activity of compounds used in the method of the invention was tested using, as a test mollusc, specimens of the adult grey field slug Deroceras reticulatum.
The oral toxicity of the compounds was assessed by presenting slugs with individually prepared experimental baits containing either 4% or 2% active material. These were compared with commercial baits containing 4% methiocarb (Draza) […] 6% metaldehyde (Slugit).
2 test pellets were placed onto a 5 cm filter-paper in the centre of a 9 cm plastic petri-dish. Two adults specimens of the slug Deroceras reticulatum were introduced into each dish and the pellets moistened with a few drops of water to make them attractive to eat. A minimum of the two replicates was used for each compound. Blank baits moistened with an equivalent volume of water were used as controls.
The dishes were then stored in a large glass tank maintained at 12 to 16°C and >95% relative humidity. Assessments of the number of slugs affected were made at intervals up to 3 days after treatment. Slugs were considered to be affected or controlled by the bait if they were incapable of normal body movements and could not right themselves within 2 minutes.
The molluscicidal activity of two compounds specified in European Patent Specification No. 437 784 A1, was tested against slugs, Deroceras reticulatum, using the test method given in Example 1 and bait containing 4% active material in each case. • Comparative A is the compound of Example 2 of EP-A-437 784 • Comparative B is the compound of Example 3 of EP-A-437 784.

[2] = test system: slugs; assay: Systemic activity: lettuce root dip, cut leaves fed to slugs; type: in vivo; conditions: root dip 400 ppm
Description: The action via systemic application of the Compound Nos. 1, 3 and 4 was assessed in this Example.
Test solutions of the compounds were prepared by dissolving technical samples in 1 ml of acetone and making up to 50 ml with tap water. The roots of young 6 cm high lettuce plants were then washed clean with water and immersed in the test solution for a minimum of two days. For each bioassay individual leaves were cut from a lettuce plant and placed on a filter paper in a 9cm diameter petri-dish. 1 ml of water was pipetted onto each filter paper in order to keep the leaves reasonably moist during the assay. Two medium-sized slugs were introduced into each dish and the amount of leaf eaten and % control of slugs recorded over a two day period. The amount of compound applied as root dips was in the range of from 400 to 1000 ppm over a number of tests.

[3] = test system: D. reticulatum; assay: Contact test: glass residue test; type: in vivo; conditions: Deroceras reticulatum, read-out: % affected D. reticulatum
Description: The contact action of Compounds Nos. 1, 3 and 4 was assessed in this Example, using a glass residue test.
The residual toxicity of compounds on glass was investigated by pipetting aliquots of an acetone/Triton X-100 test solution over the base of a 7 cm diameter glass petri-dish to achieve a concentration of 600 ppm. Four adult slugs (D. reticulatum) were introduced into each dish and slug mortality recorded over a 5 day period. Moistened sugar bran mix was provided as food 24 hours after exposure.

[4] = test system: Arion hortensis; assay: Bait test against a range of slug species; type: in vivo
Description: (§1) The action of Compound No. 1 was assessed against a wide range of slug species, and against snails of the genus Cepaea, with bait containing 2%, 4% and 6% active ingredient. The action of a 4% Draza (trade name for a sluggicide sold by Bayer AG and containing the carbamate molluscicide methiocarb) bait was also assessed.
(§2) The slug species utilised in the test were Milax budapestensis , a large slug which is a major pest of potatoes Deroceras reticulatum , grey field slug - a major field crop pest Arion hortensis , garden slug.

[5] = test system: Deroceras reticulatum; assay: Bait test against a range of slug species; type: in vivo
Description: as §1, §2

[6] = test system: Milax budapestensis; assay: Bait test against a range of slug species; type: in vivo
Description: as §1, §2

[7] = test system: snails of the genus Cepaea; assay: Bait test against snails; type: in vivo; conditions: bait containing 2%, 4% and 6% active ingredient
Description: as §1

[8] = statement of DE-A-4111389; cited from earlier work
[9] = assessments up to 3 days after treatment
[10] = 4 % active material in bait, assessments up to 3 days after treatment
[11] = bait containing 2%, 4% and 6% active ingredient

Compound: Cc1ccc(CN2CCNC2=C[N+](=O)[O-])cc1[N+](=O)[O-] [compound 21]
- mortality at 2 % strength [1, 9]: 25%

Compound: O=[N+]([O-])N=C1NCCN1Cc1cc(Cl)no1 [compound 2]
- mortality at 2 % strength [1, 9]: 50%

Compound: Cc1cc(CN2CCNC2=C[N+](=O)[O-])on1 [compound 3]
- mortality at 2 % strength [1, 9]: 100%
- systemic activity [2]: Activity was observed
- mortality at 600 ppm ([3]; 24 hours): 75%
- mortality at 600 ppm ([3]; 48 hours): 100%
- mortality at 600 ppm ([3]; 120 hours): 100%

Compound: O=[N+]([O-])C=C1NCCN1Cc1cc(C(F)(F)F)no1 [compound 4]
- mortality at 2 % strength [1, 9]: 100%
- mortality at 600 ppm ([3]; 24 hours): 25%
- mortality at 600 ppm ([3]; 48 hours): 0%
- mortality at 600 ppm ([3]; 120 hours): 25%

Compound: C=C(C)CN1CCCNC1=C[N+](=O)[O-] [compound 23]
- mortality at 2 % strength [1, 9]: 25%

Compound: O=[N+]([O-])C=C1NCCN1Cc1cc(Br)no1 [compound 5]
- mortality at 2 % strength [1, 9]: 50%

Compound: O=[N+]([O-])N=C1NCCN1Cc1cc(Br)no1 [compound 6]
- mortality at 2 % strength [1, 9]: 25%

Compound: O=[N+]([O-])C(=C1NCCN1Cc1cc(Cl)no1)[N+](=O)[O-] [compound 9]
- mortality at 2 % strength [1, 9]: 50%

Compound: O=[N+]([O-])N=C1NCCN1Cc1cnc(Cl)c(Cl)c1 [compound 15]
- mortality at 2 % strength [1, 9]: 25%

Compound: O=[N+]([O-])C=C1SCCN1Cc1cnc(Cl)c(Cl)c1 [compound 16]
- mortality at 2 % strength [1, 9]: 50%

Compound: O=[N+]([O-])C(CSc1ccc(Cl)cc1)=C1NCCN1Cc1cc(Br)no1 [compound 10]
- mortality at 2 % strength [1, 9]: 25%

Compound: O=[N+]([O-])C=C1NCCN1Cc1ccc(Cl)nc1 [compound 12]
- mortality at 4 % strength [1, 10]: 20%

Compound: CNC(=O)Oc1cc(C)c(SC)c(C)c1 [methiocarb, reference compound]
- mortality at 4 % strength [1]: 100%

Compound: Cc1cc(CN2CCCNC2=C[N+](=O)[O-])on1 [compound 24]
- mortality at 2 % strength [1, 9]: 25%

Compound: O=[N+]([O-])C=C1SCCN1Cc1cc(Cl)no1 [compound 8]
- mortality at 2 % strength [1, 9]: 25%

Compound: Cc1cc(CN2CCNC2=N[N+](=O)[O-])on1 [compound 11]
- mortality at 2 % strength [1, 9]: 100%

Compound: O=[N+]([O-])C=C1NCCN1Cc1cnc(Cl)c(Cl)c1 [compound 14]
- mortality at 4 % strength [1, 10]: 20%

Compound: O=[N+]([O-])C=C1NCCN1Cc1ccc(C(F)(F)F)cc1 [compound 22]
- mortality at 2 % strength [1, 9]: 50%

Compound: Cc1cc(CN2CCSC2=C[N+](=O)[O-])on1 [compound 7]
- mortality at 2 % strength [1, 9]: 100%

Compound: O=[N+]([O-])C=C1NCCN1Cc1cc(Cl)no1 [Compound No. 1]
- mortality at 4 % strength [1, 10]: 100%
- effectiveness compared with 4% Draza bait ([4]; 4% bait): more effective than the 4% Draza bait
- control of slugs [4, 11]: controlled
- effectiveness compared with 4% Draza bait ([5]; 4% bait): more effective than the 4% Draza bait
- control of slugs [5, 11]: controlled
- effectiveness compared with 4% Draza bait ([6]; 4% bait): more effective than the 4% Draza bait
- control of slugs [6, 11]: controlled
- control of snails [7]: controlled
- systemic activity [2]: Activity was observed
- mortality at 600 ppm ([3]; 24 hours): 100%
- mortality at 600 ppm ([3]; 48 hours): 75%
- mortality at 600 ppm ([3]; 120 hours): 100%

Compound: O=[N+]([O-])C(CSCc1ccccc1)=C1NCCN1c1ccc(Cl)nc1 [compound 17]
- mortality at 2 % strength [1, 9]: 25%

Compound: O=[N+]([O-])N=C1NCCN1Cc1ccc(Cl)nc1 [Compound No. 13, Imidacloprid]
- molluscicidal effectiveness [8]: only a relatively poorly developed molluscicidal effectiveness
- mortality at 4 % strength [1, 10]: 30%

Compound: O=[N+]([O-])C=C1NCCN1Cc1cccc2ccccc12 [compound 20]
- mortality at 2 % strength [1, 9]: 25%

Compound: O=[N+]([O-])C=C1NCCN1Cc1ccc(F)c(F)c1F [compound 18]
- mortality at 2 % strength [1, 9]: 25%
